Results on three molecules are retold here after patent publication EP4327830A1 (priority 2022, dated 2024).

For one assay, the system named is HEK293 OATP1B3+. Particulars: for IC50: read-out: IC50_cytotox on OATP1B3 expressing cell line + SE.
Assay [1] has as its target protein phosphatase-1 catalytic subunit (a-Isoform from rabbit, Sigma-Aldrich) (Oryctolagus cuniculus, UniProt P62139). Format: biochemical. The following applies: read-out: IC50_PPI + SE.
Another assay relates to HEK293 OATP1B1+. The following applies: for IC50: read-out: IC50_cytotox on OATP1B1 expressing cell line + SE.
Assay [2] deals with type 1 protein phosphatase. Particulars: cited from earlier work.
For assay [3], the system named is type 2A protein phosphatases. The following applies: cited from earlier work.

protein phosphatase-1 catalytic subunit (a-Isoform from rabbit, Sigma-Aldrich), sequence (P62139 whole entry, looked up, canonical isoform): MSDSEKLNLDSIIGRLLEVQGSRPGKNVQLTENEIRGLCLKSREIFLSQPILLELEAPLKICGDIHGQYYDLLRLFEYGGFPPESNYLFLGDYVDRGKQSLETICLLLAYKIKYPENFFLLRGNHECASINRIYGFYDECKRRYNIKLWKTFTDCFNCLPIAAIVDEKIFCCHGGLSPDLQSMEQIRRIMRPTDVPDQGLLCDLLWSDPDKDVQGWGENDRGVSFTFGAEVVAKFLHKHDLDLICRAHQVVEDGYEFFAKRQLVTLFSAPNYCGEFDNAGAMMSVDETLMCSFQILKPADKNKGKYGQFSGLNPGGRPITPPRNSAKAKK

On to `C=C1C(=O)N[C@H](C)C(=O)N[C@@H](CCCN=[N+]=[N-])C(=O)N[C@@H](C(=O)O)CC(=O)N[C@@H](CCCNC(=N)N)C(=O)N[C@@H](/C=C/C(C)=C/[C@H](C)[C@H](Cc2ccccc2)OC)[C@H](C)C(=O)N[C@@H](C(=O)O)CCC(=O)N1C` [MC-(Aznva)R, cyclo(D-Ala-Aznva-D-Asp-R-Adda-D-Glu-Mdha)], for which the “Ratio of IC50_cytotox OATP1B3/ IC50_PPI” value with HEK293 OATP1B3+ stood at 0.58. The figures for the IC50 (in the assay on HEK293 OATP1B3+; in assay [1]; in the assay on HEK293 OATP1B1+) were 27 ± 1.5 nM, 46.7 ± 9.2 nM and 24.1 ± 11.5 nM, respectively. In addition, the “Ratio of IC50_Cytotox OATP1B1/ IC50_PPI” value with HEK293 OATP1B1+ is recorded as 0.52.

With microcystin-LR, the IC50 in assay [2] is 0.03 nM; in assay [3], 0.04 nM.

On to `C#CCOc1ccc(C[C@@H]2NC(=O)[C@@H](C)NC(=O)C(=C)N(C)C(=O)CC[C@H](C(=O)O)NC(=O)[C@@H](C)[C@H](/C=C/C(C)=C/[C@H](C)[C@H](Cc3ccccc3)OC)NC(=O)[C@H](CCCNC(=N)N)NC(=O)C[C@H](C(=O)O)NC2=O)cc1` [MC-(Prtyr)R, cyclo(D-Ala-Prtyr-D-Asp-R-Adda-D-Glu-Mdha)], for which, in the assay with HEK293 OATP1B3+, the “Ratio of IC50_cytotox OATP1B3/ IC50_PPI” value is reported as 4.81 and the IC50 worked out at 40.4 ± 36.6 nM. Also, the IC50 in assay [1] was found to be 8.4 ± 5.4 nM. For the same molecule, in the assay with HEK293 OATP1B1+, the “Ratio of IC50_Cytotox OATP1B1/ IC50_PPI” value is listed as 9.79 and the IC50 was 82.2 ± 4.5 nM.
